We go through 4 molecules from US20230085307A1, “PYRIDAZINONE COMPOUND AND HERBICIDE” (NISSAN CHEMICAL CORPORATION, priority 2019, published 2023).

For one assay, the system named is late watergrass. Put plainly: Test Example 1: herbicidal activity, application before weed generation under submerged conditions (Table 16, symbol A). Format: in vivo, late watergrass (Echinochloa oryzicola). To be noted: 320 g/ha applied herbicide. Summed up: (§1)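 Alluvial soil was flooded to 4 cm depth, weed seeds were sown mixed and 2.5-leaf rice seedlings were transplanted. On sowing day, the compound's emulsion, diluted in water to a set dose, was applied to the water surface. Plants grew at 25–30 °C and were scored 0–5 after three weeks.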

Assay [1] relates to lambsquarters. Put plainly: Test Example 5: herbicidal effect by foliage application, plastic box (Table 20, symbol O). It is filed as in vivo, lambsquarters (Chenopodium album). To be noted: foliage application, AAH 320 g/ha, evaluated three weeks after application. Put shortly: (§2)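 Plants were sown into sterilized diluvial soil under about 1.5 cm cover and kept in a greenhouse at 25° C. to 30° C. Fourteen days on, foliage received an even spray of the diluted emulsion. Herbicidal or crop effect was judged three weeks afterwards.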

In a further assay the test system is Chinese sprangletop. Put plainly: Test Example 3: herbicidal effect by foliage application, Wagner pot (Table 18, symbol D). Format: in vivo, chinese sprangletop (Leptochloa chinensis). To be noted: amount of applied herbicide 320 g/ha. Put shortly: (§3)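 Plants were sown in alluvial soil held under 0.1–0.5 cm standing water and grown 14 days in a greenhouse at 25–30 °C. An emulsifiable formulation, water-diluted to the set dose, was then sprayed onto the foliage, and effects were scored three weeks later using previously defined criteria.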

Assay [2] deals with Japanese bulrush. In words: Test Example 1: herbicidal activity, application before weed generation under submerged conditions (Table 16, symbol B). It is filed as in vivo, Japanese bulrush (Schoenoplectus juncoides). Particulars: 320 g/ha applied herbicide. Put shortly: as §1
Assay [3] relates to lambsquarters. In words: Test Example 4: herbicidal effect by soil treatment (Table 19, symbol O). Format: in vivo, lambsquarters (Chenopodium album). Particulars: amount of applied herbicide 320 g/ha. Put shortly:
(§4)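 In this soil treatment, the formulated compound reached the seeds only through the soil: seeds were buried about 1.5 cm deep in sterilized diluvial soil, then the diluted emulsion was sprayed over the surface. After three weeks at 25° C. to 30° C. in a greenhouse, effects were graded on criteria from an earlier test.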

The test system of assay [4] is barnyard grass. In words: Test Example 5: herbicidal effect by foliage application, plastic box (Table 20, symbol H). It is filed as in vivo, barnyard grass (Echinochloa crus-galli). Particulars: foliage application, AAH 320 g/ha, evaluated three weeks after application. Put shortly:
as §2

For assay [5], the system named is barnyard grass. In words: Test Example 3: herbicidal effect by foliage application, Wagner pot (Table 18, symbol H). Format: in vivo, barnyard grass (Echinochloa crus-galli). Particulars: amount of applied herbicide 320 g/ha. Summed up: as §3
Assay [6] concerns barnyard grass. Put plainly: Test Example 4: herbicidal effect by soil treatment (Table 19, symbol H). It is filed as in vivo, barnyard grass (Echinochloa crus-galli). Particulars: amount of applied herbicide 320 g/ha. Put shortly: as §4
The next assay relates to chickweed. In words: Test Example 5: herbicidal effect by foliage application, plastic box (Table 20, symbol P). Particulars: foliage application, AAH 320 g/ha, evaluated three weeks after application. Format: in vivo, common chickweed (Stellaria media). Summed up:
as §2

Assay [7] deals with windgrass. Put plainly: Test Example 4: herbicidal effect by soil treatment (Table 19, symbol L). Format: in vivo, windgrass (Apera spica-venti). To be noted: amount of applied herbicide 320 g/ha. Put shortly:
as §4

In a further assay the test system is persian speedwell. In words: Test Example 4: herbicidal effect by soil treatment (Table 19, symbol R). To be noted: amount of applied herbicide 320 g/ha. It is filed as in vivo, Persian speedwell (Veronica persica). Summed up:
as §4

For a further assay, the system named is blackgrass. Put plainly: Test Example 5: herbicidal effect by foliage application, plastic box (Table 20, symbol J). To be noted: foliage application, AAH 320 g/ha, evaluated three weeks after application. It is filed as in vivo, blackgrass (Alopecurus myosuroides). Put shortly: as §2
The test system of a further assay is southern crabgrass. In words: Test Example 4: herbicidal effect by soil treatment (Table 19, symbol F). It is filed as in vivo, southern crabgrass (Digitaria ciliaris). To be noted: amount of applied herbicide 320 g/ha. Put shortly:
as §4

Assay [8] deals with Japanese bulrush. Put plainly: Test Example 2: herbicidal activity, application during weed generation under submerged conditions (Table 17, symbol B). It is filed as in vivo, Japanese bulrush (Schoenoplectus juncoides). Particulars: AAH 320 g/ha; application during weed generation, submerged conditions. Put shortly: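 Effect on each weed is rated three weeks post-treatment, using the same scoring criteria as the preceding test. Plants grow from mixed-sown seed in flooded alluvial soil (4 cm water) at 25° C. to 30° C., and are treated at one to two leaves with diluted emulsion dropped onto the water.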

Assay [9] concerns windgrass. In words: Test Example 5: herbicidal effect by foliage application, plastic box (Table 20, symbol L). Format: in vivo, windgrass (Apera spica-venti). To be noted: foliage application, AAH 320 g/ha, evaluated three weeks after application. Put shortly:
as §2

Another assay has as its system redroot pigweed. Put plainly: Test Example 5: herbicidal effect by foliage application, plastic box (Table 20, symbol N). Format: in vivo, redroot pigweed (Amaranthus retroflexus). Particulars: foliage application, AAH 320 g/ha, evaluated three weeks after application. Summed up:
as §2

For the molecule `Cc1nn(C)c(=O)c(-c2c(-c3ccc(S(C)(=O)=O)cc3)sc3ccc(F)cc23)c1O` [2-258], the “Herbicidal effect on A: late watergrass (grade 0-5)” value in the assay with late watergrass was 5 (Herbicidal rate of 90% or more (almost completely withered)). The “O: lambsquarters, herbicidal effect (criteria 0-5)” value (“O: lambsquarters, herbicidal effect” for short) in the assay on lambsquarters [1] is reported as 5 (Herbicidal rate of 90% or more (almost completely withered)). The “herbicidal effect on D: Chinese sprangletop” value (from here on “herbicidal effect on D”) in the assay with Chinese sprangletop was 5 (Herbicidal rate of 90% or more (almost completely withered)). In addition, the “Herbicidal effect on B: Japanese bulrush (grade 0-5)” value (shortened to “Herbicidal effect on B”) in the assay on Japanese bulrush [2] was 3 (Herbicidal rate of 40% or more and less than 70%). Besides, the “herbicidal effect on O: lambsquarters” value with lambsquarters [3] was 4 (Herbicidal rate of 70% or more and less than 90%). In addition, in the assay on barnyard grass [4], the “H: barnyard grass, herbicidal effect (criteria 0-5)” value (“H: barnyard grass … (criteria 0-5)” for short) is listed as 5 (Herbicidal rate of 90% or more (almost completely withered)). Moreover, the “herbicidal effect on H: barnyard grass” value in the assay with barnyard grass [5] and in the assay on barnyard grass [6] was 5 (Herbicidal rate of 90% or more (almost completely withered)) throughout. Besides, the “P: chickweed, herbicidal effect (criteria 0-5)” value (shortened to “P: chickweed, herbicidal effect”) with chickweed is reported as 5 (Herbicidal rate of 90% or more (almost completely withered)). In addition, the “herbicidal effect on L: windgrass” value in the assay with windgrass [7] was 4 (Herbicidal rate of 70% or more and less than 90%). Also, in the assay with persian speedwell, the “herbicidal effect on R: persian speedwell” value (shortened to “herbicidal effect on R”) is 5 (Herbicidal rate of 90% or more (almost completely withered)). Also, the “J: blackgrass, herbicidal effect (criteria 0-5)” value (from here on “J: blackgrass, herbicidal effect”) in the assay with blackgrass was 5 (Herbicidal rate of 90% or more (almost completely withered)). Further, the “herbicidal effect on F: southern crabgrass” value (shortened to “herbicidal effect on F”) with southern crabgrass was 4 (Herbicidal rate of 70% or more and less than 90%). In the assay with Japanese bulrush [8], the “herbicidal effect rating, B: Japanese bulrush” value (shortened to “herbicidal effect rating, B”) is recorded as 0 (Herbicidal rate of 5% or less (almost no effect)). In addition, the “L: windgrass, herbicidal effect (criteria 0-5)” value (from here on “L: windgrass, herbicidal effect”) in the assay with windgrass [9] is on record as 5 (Herbicidal rate of 90% or more (almost completely withered)). The “N: redroot pigweed, herbicidal effect (criteria 0-5)” value (from here on “N: redroot pigweed”) in the assay with redroot pigweed is given as 5 (Herbicidal rate of 90% or more (almost completely withered)).
On to `COCC(=O)Oc1c(C)nn(C)c(=O)c1-c1c(-c2ccc(OC(F)F)cc2)sc2ccc(F)cc12` [2-283], for which the “Herbicidal effect on A: late watergrass (grade 0-5)” value with late watergrass was 3 (Herbicidal rate of 40% or more and less than 70%). Besides, the “O: lambsquarters, herbicidal effect” value in the assay on lambsquarters [1] is listed as 5 (Herbicidal rate of 90% or more (almost completely withered)). In addition, the “herbicidal effect on D” value in the assay with Chinese sprangletop is 4 (Herbicidal rate of 70% or more and less than 90%). In addition, in the assay with Japanese bulrush [2], the “Herbicidal effect on B” value was 5 (Herbicidal rate of 90% or more (almost completely withered)). Besides, in the assay on lambsquarters [3], the “herbicidal effect on O: lambsquarters” value was 5 (Herbicidal rate of 90% or more (almost completely withered)). In addition, in the assay with barnyard grass [4], the “H: barnyard grass … (criteria 0-5)” value was 5 (Herbicidal rate of 90% or more (almost completely withered)). Moreover, the “herbicidal effect on H: barnyard grass” value with barnyard grass [5] and with barnyard grass [6] was 5 (Herbicidal rate of 90% or more (almost completely withered)) each time. For the same molecule, the “P: chickweed, herbicidal effect” value in the assay on chickweed is 5 (Herbicidal rate of 90% or more (almost completely withered)). The “herbicidal effect on L: windgrass” value in the assay on windgrass [7] was 4 (Herbicidal rate of 70% or more and less than 90%). Moreover, the “herbicidal effect on R” value in the assay on persian speedwell was 5 (Herbicidal rate of 90% or more (almost completely withered)). Also, the “J: blackgrass, herbicidal effect” value with blackgrass is 4 (Herbicidal rate of 70% or more and less than 90%). Moreover, the “herbicidal effect on F” value in the assay on southern crabgrass is reported as 5 (Herbicidal rate of 90% or more (almost completely withered)). The “herbicidal effect rating, B” value in the assay with Japanese bulrush [8] is 3 (Herbicidal rate of 40% or more and less than 70%). In addition, the “L: windgrass, herbicidal effect” value in the assay with windgrass [9] is reported as 5 (Herbicidal rate of 90% or more (almost completely withered)). Besides, the “N: redroot pigweed” value with redroot pigweed is 5 (Herbicidal rate of 90% or more (almost completely withered)).
As for `Cc1nn(C)c(=O)c(-c2c(-c3ccc(OC(F)F)cc3)sc3ccc(F)cc23)c1OC(=O)c1ccc(Cl)cc1` [2-286], the “Herbicidal effect on A: late watergrass (grade 0-5)” value with late watergrass is reported as 5 (Herbicidal rate of 90% or more (almost completely withered)). The “O: lambsquarters, herbicidal effect” value in the assay with lambsquarters [1] was 5 (Herbicidal rate of 90% or more (almost completely withered)). Further, in the assay with Chinese sprangletop, the “herbicidal effect on D” value was 4 (Herbicidal rate of 70% or more and less than 90%). Besides, the “Herbicidal effect on B” value in the assay with Japanese bulrush [2] was 3 (Herbicidal rate of 40% or more and less than 70%). For the same molecule, in the assay with lambsquarters [3], the “herbicidal effect on O: lambsquarters” value was 3 (Herbicidal rate of 40% or more and less than 70%). The “H: barnyard grass … (criteria 0-5)” value in the assay on barnyard grass [4] is listed as 5 (Herbicidal rate of 90% or more (almost completely withered)). Also, the “herbicidal effect on H: barnyard grass” value is 5 (Herbicidal rate of 90% or more (almost completely withered)) with barnyard grass [5]; 1 (Herbicidal rate of 5% or more and less than 20%) in the assay on barnyard grass [6]. The “P: chickweed, herbicidal effect” value in the assay on chickweed is 5 (Herbicidal rate of 90% or more (almost completely withered)). Besides, the “herbicidal effect on L: windgrass” value with windgrass [7] is 0 (Herbicidal rate of 5% or less (almost no effect)). Moreover, the “herbicidal effect on R” value with persian speedwell was 3 (Herbicidal rate of 40% or more and less than 70%). Besides, in the assay with blackgrass, the “J: blackgrass, herbicidal effect” value is 4 (Herbicidal rate of 70% or more and less than 90%). Further, in the assay with southern crabgrass, the “herbicidal effect on F” value is listed as 0 (Herbicidal rate of 5% or less (almost no effect)). In addition, in the assay with Japanese bulrush [8], the “herbicidal effect rating, B” value is 3 (Herbicidal rate of 40% or more and less than 70%). Moreover, the “L: windgrass, herbicidal effect” value with windgrass [9] was 0 (Herbicidal rate of 5% or less (almost no effect)). For the same molecule, the “N: redroot pigweed” value with redroot pigweed is 5 (Herbicidal rate of 90% or more (almost completely withered)).
Regarding `Cc1nn(C)c(=O)c(-c2c(-c3ccc(OC(F)F)cc3)sc3ccc(F)cc23)c1OC(=O)c1ccco1` [2-287], the “Herbicidal effect on A: late watergrass (grade 0-5)” value in the assay with late watergrass was 5 (Herbicidal rate of 90% or more (almost completely withered)). In addition, in the assay with lambsquarters [1], the “O: lambsquarters, herbicidal effect” value is given as 5 (Herbicidal rate of 90% or more (almost completely withered)). Besides, the “herbicidal effect on D” value in the assay on Chinese sprangletop was 3 (Herbicidal rate of 40% or more and less than 70%). For the same molecule, the “Herbicidal effect on B” value in the assay on Japanese bulrush [2] was 4 (Herbicidal rate of 70% or more and less than 90%). The “herbicidal effect on O: lambsquarters” value with lambsquarters [3] is reported as 5 (Herbicidal rate of 90% or more (almost completely withered)). The “H: barnyard grass … (criteria 0-5)” value in the assay with barnyard grass [4] is 5 (Herbicidal rate of 90% or more (almost completely withered)). Further, the “herbicidal effect on H: barnyard grass” value in the assay with barnyard grass [5] and with barnyard grass [6] was 5 (Herbicidal rate of 90% or more (almost completely withered)) each time. The “P: chickweed, herbicidal effect” value in the assay on chickweed was 5 (Herbicidal rate of 90% or more (almost completely withered)). Besides, in the assay on windgrass [7], the “herbicidal effect on L: windgrass” value was 3 (Herbicidal rate of 40% or more and less than 70%). Also, the “herbicidal effect on R” value in the assay with persian speedwell was 5 (Herbicidal rate of 90% or more (almost completely withered)). Besides, the “J: blackgrass, herbicidal effect” value in the assay on blackgrass is 5 (Herbicidal rate of 90% or more (almost completely withered)). The “herbicidal effect on F” value with southern crabgrass is 4 (Herbicidal rate of 70% or more and less than 90%). Moreover, the “herbicidal effect rating, B” value in the assay on Japanese bulrush [8] was 3 (Herbicidal rate of 40% or more and less than 70%). For the same molecule, the “L: windgrass, herbicidal effect” value in the assay on windgrass [9] was 4 (Herbicidal rate of 70% or more and less than 90%). Also, the “N: redroot pigweed” value with redroot pigweed is recorded as 5 (Herbicidal rate of 90% or more (almost completely withered)).
